Tests used:
[1] = test system: Streptococcus 6646K NA (StrepNA); assay type: biochemical
[2] = biological target: Clostridium perfringens NanJ NA (CpNA) (Clostridium perfringens, UniProt A0A0H2YT71); assay type: biochemical
[3] = biological target: A/RI/5+/1957(H2N2) NA (N2) (Influenza A virus, UniProt Q194T1); experiment: biochemical; assay type: biochemical, influenza A/RI/5+/1957(H2N2)
influenza NA = details: cited from earlier work
N2 = details: cited from earlier work

Clostridium perfringens NanJ NA (CpNA), sequence (A0A0H2YT71 27-1173 limits assumed): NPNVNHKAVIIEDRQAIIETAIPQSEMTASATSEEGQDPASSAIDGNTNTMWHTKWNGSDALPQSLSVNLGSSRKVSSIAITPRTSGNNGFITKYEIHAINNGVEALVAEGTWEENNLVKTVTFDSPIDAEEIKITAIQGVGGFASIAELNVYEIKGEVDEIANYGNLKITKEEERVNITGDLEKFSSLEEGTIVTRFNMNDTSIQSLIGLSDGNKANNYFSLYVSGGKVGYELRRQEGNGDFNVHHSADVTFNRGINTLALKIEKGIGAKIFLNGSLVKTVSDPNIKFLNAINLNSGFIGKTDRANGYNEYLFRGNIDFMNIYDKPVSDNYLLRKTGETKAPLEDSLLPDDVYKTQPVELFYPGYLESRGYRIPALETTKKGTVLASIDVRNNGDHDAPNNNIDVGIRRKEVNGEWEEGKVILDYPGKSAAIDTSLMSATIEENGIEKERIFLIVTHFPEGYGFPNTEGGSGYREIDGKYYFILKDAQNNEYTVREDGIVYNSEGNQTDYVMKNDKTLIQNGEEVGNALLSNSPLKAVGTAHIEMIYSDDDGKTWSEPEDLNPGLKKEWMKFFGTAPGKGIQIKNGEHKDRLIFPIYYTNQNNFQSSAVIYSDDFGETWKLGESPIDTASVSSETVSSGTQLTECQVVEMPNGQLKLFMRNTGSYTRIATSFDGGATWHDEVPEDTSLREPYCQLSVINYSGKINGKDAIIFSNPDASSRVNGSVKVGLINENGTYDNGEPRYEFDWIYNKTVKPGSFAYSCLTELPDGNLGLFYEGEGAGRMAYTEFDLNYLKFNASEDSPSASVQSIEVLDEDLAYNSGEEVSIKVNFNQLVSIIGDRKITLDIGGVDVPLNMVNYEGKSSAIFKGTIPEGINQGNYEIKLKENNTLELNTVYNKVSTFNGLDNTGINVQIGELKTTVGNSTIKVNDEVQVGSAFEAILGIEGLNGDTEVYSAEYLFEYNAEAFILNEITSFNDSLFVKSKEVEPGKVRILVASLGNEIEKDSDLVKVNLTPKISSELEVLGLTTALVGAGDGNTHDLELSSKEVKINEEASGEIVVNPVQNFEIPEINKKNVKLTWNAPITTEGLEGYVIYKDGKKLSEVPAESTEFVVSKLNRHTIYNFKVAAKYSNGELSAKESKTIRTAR

Row | Molecule | IC50 [3] | Ki [3] | inhibition of influenza NA (influenza NA) | also measured
1 | CC(=O)N[C@H]1[C@H]([C@H](O)[C@H](O)CO)O[C@H](S(=O)(=O)O)C[C@@H]1O [7a, 4-Acetamido-1-sulfo-1,2,4-trideoxy-D-glycero-D-galacto-octopyranose] | 8.86 µM | 2.47 µM | – | IC50 [1]: 3.74 µM; potency for CpNA inhibition relative to eqPO3H [2]: 8.5 fold; IC50 ([2]; read-out: CpNA IC50): 37.5 µM; potency for inhibition of influenza N2 relative to eqPO3H [3]: 40 fold
2 | [H]/N=C(\N)N[C@H]1C=C(C(=O)O)O[C@@H]([C@H](OC)[C@H](O)CO)[C@@H]1NC(C)=O [laninamivir] | – | – | low nanomolar level | –
3 | CCOC(=O)C1=C[C@@H](OC(CC)CC)[C@H](NC(C)=O)[C@@H](N)C1 [oseltamivir] | – | – | low nanomolar level | –
4 | peramivir | – | – | low nanomolar level | –
5 | CC(=O)N[C@@H]1C=C[C@H](S(=O)(=O)O)O[C@H]1[C@H](O)[C@H](O)CO [8b, 4-Acetamido-1-sufo-2,3-didehydro-1,2,3,4-tetradeoxy-D-glycero-D-galacto-octopyranose] | 316 µM | 88.1 µM | – | –
6 | CC(=O)N[C@H]1[C@H]([C@H](O)[C@H](O)CO)OC(C(=O)O)=C[C@@H]1O [Neu4Ac2en, 2,3-dehydro-2-deoxy-N-acetylneuraminic acid] | – | – | – | IC50 (N2): 19 µM
7 | CC(=O)N[C@H]1[C@H]([C@H](O)[C@H](O)CO)OC(C(=O)O)=C[C@@H]1N=C(N)N [zanamivir] | – | – | low nanomolar level | –
8 | CC(=O)N[C@H]1[C@H]([C@H](O)[C@H](O)CO)O[C@@H](S(=O)(=O)O)C[C@@H]1O [7b, 4-Acetamido-1-sulfo-1,2,4-trideoxy-D-glycero-D-galacto-octopyranose] | 120 µM | 33.5 µM | – | –

— publication PMC5557986 (Scientific Reports, 2017)
